Measured values: patent US20260297081A1, “COMPOUNDS AND METHODS OF TREATING CANCERS” (Cullgen Inc., priority 2023, published 2026)
Like-named read-outs stand apart in the source and are kept apart here.

How the values were obtained:
Calu-1 cells = assay: Anti-proliferation (viability) of NSCLC Calu-1 cells, 3 days (Table 7, FIG. 2B); assay type: cell-based; details: Homo sapiens, 72 h; Calu-1 cells, 3 days, 10-point serial dilution; read-out: GI IC50 in Calu-1
How it was run: (§1)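 Viability is read after treatment with compounds titrated over ten serial dilution points, with exposure lasting three days for the NSCLC line and six days for the breast cancer line.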

MCF7 cells = assay: Anti-proliferation (viability) of MCF7 cells (Table 7, FIG. 2B); assay type: cell-based; details: Homo sapiens, MCF7, MCF7 cells, 3-6 days, 10-point serial dilution; read-out: GI IC50 in MCF-7
[1] = Mouse pharmacokinetics (FIG. 5); assay type: in vivo, male Swiss Albino mice; details: plasma, po, mice, 1 mg/kg i.v. and 10 mg/kg p.o., over 12 hours
Description: A single dose of CPD-39 via 1 mg/kg intravenous (i.v.) injection or 10 mg/kg oral (p.o.) gavage was evaluated in mice. Plasma concentration of CPD-39 reported at each time points post dosing (5 min, 15 min, 30 min, 1 h, 2 h, 4 h, and 8 h via i.v.; 15 min, 30 min, 1 h, 2 h, 4 h, 6 h, 8 h, and 12 h via p.o.) represents the mean value derived from 3 experimental animals.
Standard PK studies were conducted using male Swiss Albino mice by Sai Life Sciences. A single dose of test compound via intravenous (i.v.) injection or oral (p.o.) gavage was evaluated in fed mice. Plasma concentration of test compound reported at each time points represents the mean value derived from 3 experimental animals. Error bars represent +SD.

T47D cells [2] = assay: Anti-proliferation (viability) of ER+ breast cancer T47D cells, 6 days (Table 7, FIG. 2B); assay type: cell-based; details: Homo sapiens, 144 h; T47D cells, 6 days, 10-point serial dilution; read-out: GI IC50 in T47D
How it was run: as §1

[3] = Pharmacokinetics in mice, single dose i.v. injection or oral gavage (FIG. 5); assay type: in vivo; details: mouse, plasma
Description: To investigate the pharmacokinetics of heterobifunctional compounds, exemplified by CPD-39, a single dose of CPD-39 via 1 mg/kg intravenous (i.v.) injection or 10 mg/kg was evaluated in mice. Plasma concentration reported at each time points post dosing represents the mean value derived from 3 experimental animals.

[4] = system: T47D palbo-resistant cells; assay: CellTiter-Lumi cell viability assay, T47D palbo-resistant cells, 6 days (FIG. 4); assay type: cell-based; details: Homo sapiens, 144 h
Description: (§2) Furthermore, we developed one ER^+ breast cancer T47D model with acquired resistance after long period of treatment with 1 μM palbociclib (over IC90). Cells were deemed resistant when growing in the presence of palbo at the same rate as parental cells. Palbo resistance was determined by CellTiter-Lumi cell viability assay (FIG. 4, IC50>10,000 nM).

T47D parental cells = assay: CellTiter-Lumi cell viability assay, T47D parental cells, 6 days (FIG. 4); assay type: cell-based; details: Homo sapiens, 144 h
Description: as §2

CDK4 [5] = target: T1, CDK4 (Homo sapiens, UniProt P11802+Q16531); assay: CDK4 percentage degradation in Calu-1 cells (Table 6); assay type: cell-based; design: Cells that express cyclin D1-3 and CDK4/6 proteins were treated with heterobifunctional compounds; endogenous in cells; host or cells: Calu-1; details: 16 hours
How it was run: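 Percentage degradation of Cyclin D1 and CDK4 derived from densitometry of ECL Western blots on lysates of Calu-1 cells. Treatment was 16 h with compound at either 40 nM or 200 nM.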

[6] = system: T47D palbo-resistant cells; assay: Cell viability in T47D palbociclib-resistant model (FIG. 4); assay type: cell-based; details: 10-point serial dilution, 6 days
Description: T47D cells were cultured long-term to resistance in the presence of 1 μM Palbociclib. Palbo resistance was determined by CellTiter-Lumi cell viability assay. T47D parental or palbo-resistant cells were treated with palbociclib, or heterobifunctional compounds CPD-10 or CPD-39 following a 10-point serial dilution for 6 days.
(§3) Calu-1, T47D, MCF7, HCC1428 and other cells were cultured at 37° C. with 5% CO2 in RPMI 1640 or DMEM medium supplemented with 10% fetal bovine serum. Cells were authenticated using the short tandem repeat (STR) assays. Mycoplasma test results were negative. For palbo-resistant cell model, T47D cells were cultured long-term to resistance in the presence of 1 μM Palbociclib. Cells were deemed resistant when growing in the presence of Palbo at the same rate as parental cells.
Cells were seeded at a density of 2,000-5,000 cells per well in 96-well assay plates and treated with test compounds following a 10-point serial dilution for 3-6 days. Cell viability was determined using the CellTiter-Lumi assay kit according to the manufacturer's instructions. The dose-response curves were determined and IC50 values were calculated using the GraphPad Prism software following a nonlinear regression (least squares fit) method. Data presented was mean±standard deviation (SD)unless otherwise indicated.

T47D cells [7] = assay: Flow cytometric analysis of Annexin V/7-AAD stained T47D cells (apoptosis), 6 days (FIG. 3A); assay type: cell-based
Description: (§4) T47D cells were treated with DMSO, palbociclib, heterobifunctional compound CPD-10 for 6 days at doses approximating IC50and IC90 concentrations as indicated (FIG. 3A). HCC1428 cells were treated with DMSO, palbociclib, heterobifunctional compound CPD-10, or its negative control compound CPD-143 for 6 days at doses approximating IC90 concentrations as indicated (FIG. 3B). Cells were harvested by trypsinization, staining was carried out using the Annexin V Apoptosis Detection Kit. The percentages of early apoptotic (Annexin V^+7-AAD^−, lower right quadrant), late apoptotic (Annexin V^+7-AAD^+, upper right quadrant) and necrotic cells (Annexin V^−7-AAD^+, upper left quadrant) are indicated on dot plots.

[8] = system: CCND1, CCND3, and CDK4 in Calu-1 cells; assay: Immunoblot of CCND1, CCND3 and CDK4 protein levels in Calu-1 cells (FIG. 1A, 4 hours); assay type: cell-based; details: Calu-1 cells, CDK4/6 inhibitor
Description: (§5) Specific exemplary heterobifunctional compounds were characterized in Calu-1, MCF7, T47D and other cells. Cells that express cyclin D1-3 and CDK4/6 proteins were treated with heterobifunctional compounds disclosed herein at indicated concentrations. MCF7 cells were deprived of serum for 2 hours followed by the treatment with heterobifunctional compounds. Cells were collected, lysed and subject to immunoblotting using an antibody specific to CCND1, CCND2, CCND3, CDK4, or FoxM1, cyclin A2, or phosphorylated Rb (S807/811) proteins. Tubulin or GAPDH was used as the loading control. DMSO treatment was used as the negative control.

HCC1428 cells [9] = assay: Annexin V apoptosis flow cytometry, HCC1428 (FIG. 3B); assay type: cell-based; details: HCC1428, dose approximating IC90, 6 days
Description: as §4, with “IC50 and” for “IC50and”, “Kit.” for “Kit. The percentages of early apoptotic (Annexin V^+7-AAD^−, lower right quadrant), late apoptotic (Annexin V^+7-AAD^+, upper right quadrant) and necrotic cells (Annexin V^−7-AAD^+, upper left quadrant) are indicated on dot plots.”
(§6) Assays were performed on the CytoFLEX Cytometer (Beckman Coulter), and data were analyzed using CytExpert software. For cell death and apoptosis analysis, cells were harvested by trypsinization, staining was carried out using the Annexin V Apoptosis Detection Kit (BD Biosciences). Briefly, cells were resuspended in 1× binding buffer and incubated with fluorochrome-conjugated Annexin V and 7-AAD for 15 min in darkness at room temperature.

CCND1 = assay: Immunoblotting of CCND1 protein level in Calu-1 and MCF7 cells (FIG. 1A-1B); assay type: cell-based
Description: (§7) Calu-1 cells were treated with heterobifunctional compound CPD-10, or CDK4/6 inhibitor palbociclib at indicated concentrations for 4 hours (FIG. 1A). MCF7 cells were deprived of serum for 2 hours followed by treatment with CPD-10, or palbociclib at indicated concentrations for 24 hours (FIG. 1B).
(§8) Antibody and Reagent Anti-cyclin D1 (29785), anti-cyclin D2 (3741S), anti-cyclin D3 (2936S), anti-CDK4 (127905), anti-CDK6 (3136S), anti-phospho-Rb (8516S), anti-FoxM1 (54365), anti-cyclinA2(4656S), anti-vinculin antibody (187995) antibodies were purchased from Cell Signaling Technology. HRP-conjugated anti-α-tubulin antibody and anti-α-GAPDH antibody were purchased from GNI. Media, and other cell culture reagents were purchased from Thermo Fisher Scientific. CellTiter-Glo Luminescent Assay kit was purchased from Promega.
as §3
(§9) Cultured cells were washed with cold PBS once and lysed in cold RIPA buffer supplemented with protease inhibitors and phosphatase inhibitors (Beyotime Biotechnology). The solutions were then incubated at 4 ? for 30 min with gentle agitation to fully lysed cells. Cell lysates were centrifuged at 13,000 rpm for 10 min at 4 ? and pellets were discarded. Total protein concentrations in the lysates were determined following BCA assays (Beyotime Biotechnology). Cell lysates were mixed with Laemmli loading buffer and heated at 99° C. for 5 min. Proteins were resolved on SDS-PAGE and visualized using Western ECL Substrate kits on a ChemiDoc MP Imaging system (Bio-Rad). Protein bands were quantitated using the Image Lab software provided by Bio-Rad.

CDK4 [10] = target: T1, CDK4; assay: Immunoblotting of CDK4 protein level in Calu-1 and MCF7 cells (FIG. 1A-1B); assay type: cell-based; design: Cells that express cyclin D1-3 and CDK4/6 proteins were treated with heterobifunctional compounds; endogenous in cells; host or cells: Calu-1; details: Calu-1 cells, 4 hours
Description: as §7, §8, §3, §9

T47D cells [11] = assay: Annexin V apoptosis flow cytometry, T47D (FIG. 3A); assay type: cell-based; details: doses approximating IC50 and IC90, 6 days
Description: as §4, with “IC50 and” for “IC50and”, “Kit.” for “Kit. The percentages of early apoptotic (Annexin V^+7-AAD^−, lower right quadrant), late apoptotic (Annexin V^+7-AAD^+, upper right quadrant) and necrotic cells (Annexin V^−7-AAD^+, upper left quadrant) are indicated on dot plots.”
as §6

[12] = system: CCND1, CCND3, and CDK4 in MCF7 cells; assay: Immunoblot of CCND1, CCND3 and CDK4 protein levels in MCF7 cells under serum starvation (FIG. 1B, 24 hours); assay type: cell-based; details: MCF7 cells, CDK4/6 inhibitor
Description: as §5

CCND3 = assay: Immunoblotting of CCND3 protein level in Calu-1 and MCF7 cells (FIG. 1A-1B); assay type: cell-based; details: Calu-1 cells, 4 hours
Description: as §7, §8, §3, §9

HCC1428 cells [13] = assay: Flow cytometric analysis of Annexin V/7-AAD stained HCC1428 cells (apoptosis), 6 days (FIG. 3B); assay type: cell-based; details: HCC1428; 1 μM; 6 days
Description: as §4

T1 sequence (P11802 2-303 limits assumed): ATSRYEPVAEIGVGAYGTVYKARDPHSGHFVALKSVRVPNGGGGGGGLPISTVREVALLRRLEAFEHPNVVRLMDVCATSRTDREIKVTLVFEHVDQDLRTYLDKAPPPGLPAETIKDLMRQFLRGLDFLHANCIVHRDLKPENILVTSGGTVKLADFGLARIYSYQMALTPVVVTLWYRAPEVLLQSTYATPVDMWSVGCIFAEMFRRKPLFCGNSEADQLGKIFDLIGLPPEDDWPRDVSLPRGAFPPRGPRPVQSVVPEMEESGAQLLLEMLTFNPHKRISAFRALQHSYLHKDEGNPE
T1 sequence (P24385 whole entry partner): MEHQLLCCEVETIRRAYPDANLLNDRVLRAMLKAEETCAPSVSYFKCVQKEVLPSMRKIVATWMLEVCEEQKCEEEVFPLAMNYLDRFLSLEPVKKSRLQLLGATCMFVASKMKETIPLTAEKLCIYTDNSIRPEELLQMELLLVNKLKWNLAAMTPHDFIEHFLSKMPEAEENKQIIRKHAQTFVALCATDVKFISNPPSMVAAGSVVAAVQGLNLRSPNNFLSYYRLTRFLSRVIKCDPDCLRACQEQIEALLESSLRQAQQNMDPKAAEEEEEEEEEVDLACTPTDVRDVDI
T1 sequence (Q16531 2-1140 limits assumed): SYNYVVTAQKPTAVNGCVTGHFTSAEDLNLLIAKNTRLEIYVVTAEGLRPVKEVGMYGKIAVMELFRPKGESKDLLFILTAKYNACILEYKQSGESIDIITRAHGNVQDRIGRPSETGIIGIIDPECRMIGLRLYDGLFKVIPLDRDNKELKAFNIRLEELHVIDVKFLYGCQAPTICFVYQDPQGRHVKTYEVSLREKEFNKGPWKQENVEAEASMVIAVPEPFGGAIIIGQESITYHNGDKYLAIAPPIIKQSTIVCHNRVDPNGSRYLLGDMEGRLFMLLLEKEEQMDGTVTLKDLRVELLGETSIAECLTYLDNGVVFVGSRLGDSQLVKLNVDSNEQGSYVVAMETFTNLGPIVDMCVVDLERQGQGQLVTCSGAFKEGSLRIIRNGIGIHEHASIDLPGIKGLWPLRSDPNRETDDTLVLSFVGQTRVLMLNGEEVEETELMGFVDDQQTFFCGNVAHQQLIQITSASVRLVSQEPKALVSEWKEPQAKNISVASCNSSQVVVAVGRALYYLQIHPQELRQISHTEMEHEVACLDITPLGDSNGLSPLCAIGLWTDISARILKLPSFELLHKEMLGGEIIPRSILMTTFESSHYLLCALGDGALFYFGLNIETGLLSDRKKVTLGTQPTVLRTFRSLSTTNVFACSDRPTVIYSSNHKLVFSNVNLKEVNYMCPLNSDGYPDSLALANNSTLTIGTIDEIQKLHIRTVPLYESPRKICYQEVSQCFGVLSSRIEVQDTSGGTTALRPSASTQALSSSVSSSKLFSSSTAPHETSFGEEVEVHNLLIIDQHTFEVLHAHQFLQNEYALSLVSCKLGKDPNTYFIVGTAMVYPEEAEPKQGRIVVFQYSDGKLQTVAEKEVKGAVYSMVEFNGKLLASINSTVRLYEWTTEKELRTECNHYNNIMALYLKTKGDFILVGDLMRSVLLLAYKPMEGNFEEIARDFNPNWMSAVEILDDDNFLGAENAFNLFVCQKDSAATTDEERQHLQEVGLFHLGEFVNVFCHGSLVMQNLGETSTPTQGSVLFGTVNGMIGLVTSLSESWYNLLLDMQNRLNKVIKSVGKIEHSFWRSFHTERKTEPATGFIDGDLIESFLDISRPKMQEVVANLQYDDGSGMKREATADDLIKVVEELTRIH

## CNc1ccc(C(=O)Nc2ccc(N(C)C)nn2)c(NC2CC3(CC(NC(=O)CN4CCN(c5ccc(Nc6ncc7c(C)c(C(C)=O)c(=O)n(C8CCCC8)c7n6)nc5)CC4)C3)C2)n1 (centres unmarked) [CPD-39, 2-((6-(2-(4-(6-((6-Acetyl-8-cyclopentyl-5-methyl-7-oxo-7,8-dihydropyrido[2,3-d]pyrimidin-2-yl)amino)pyridin-3-yl)piperazin-1-yl)acetamido)spiro[3.3]heptan-2-yl)amino)-N-(6-(dimethylamino)pyridazin-3-yl)-6-(methylamino)nicotinamide]
Calu-1 cells
  IC50: ≤ 10 nM
MCF7 cells
  IC50: > 100 nM
[1]
  bioavailability at 12 h: ~15%
T47D cells [2]
  IC50: ≤ 50 nM
[3]; iv, mice, 1 mg/kg i.v., read-out: AUCinf, i.v.
  AUC(0-inf): 1030 ng·h/mL
[3]; iv, mice, 1 mg/kg i.v., read-out: CL, i.v.
  clearance: 16.3 mL/min/kg
[3]; iv, mice, 1 mg/kg i.v., read-out: VSS, i.v.
  Vd: 1.6 L/kg
[3]; po, fed mice, 10 mg/kg p.o., read-out: AUCinf, p.o.
  AUC(0-inf): 1580 ng·h/mL
[3]; fed mice, 10 mg/kg oral vs 1 mg/kg i.v.
  bioavailability: > 15%
[4]
  IC50: 82.5 nM
T47D parental cells
  IC50: 32.6 nM
CDK4 [5]; 40 nM
  inhibition at 0.04 µM: 50 to 80%
CDK4 [5]; 200 nM
  inhibition at 0.2 µM: 50 to 80%
[6]
  cell viability in palbociclib-resistant model: remained effective in T47D palbo-resistant model

## CC(=O)c1c(C)c2cnc(Nc3ccc(N4CCNCC4)cn3)nc2n(C2CCCC2)c1=O [Palbociclib, palbociclib, reference compound]
T47D cells [7]; 100 nM
  Annexin V+ population: 15.9%
T47D cells [7]; 1 μM
  Annexin V+ population: 26.1%
[4]
  IC50: > 10000 nM
[8]
  effect on CCND and CDK4 protein levels (result in words): no significant effect
HCC1428 cells [9]
  cell apoptosis: much less effect on cell apoptosis
CCND1; Calu-1 cells, 4 hours
  CCND1 protein level: did not significantly change the levels of these proteins in Calu-1 cells
CCND1; MCF7 cells, serum deprived 2 hours, treated 24 hours
  CCND1 protein level: accumulated CCND1 protein levels in MCF7 cells
CDK4 [10]
  CDK4 protein level: did not significantly change the levels of these proteins in Calu-1 cells
T47D cells [11]
  cell apoptosis: much less effect on cell apoptosis
[12]
  effect on CCND1 protein levels (result in words): accumulation of CCND1 protein levels
CCND3
  CCND3 protein level: did not significantly change the levels of these proteins in Calu-1 cells
HCC1428 cells [13]
  Annexin V+ population: 17.7%
